Laboratory results from article PMC8868518, “Exploring Titanium(IV) Complexes as Potential Antimicrobial Compounds” (Antibiotics, 2022).
Read-outs that look alike come from different tables or passages of the source.

Assays:
[1] = system: S. aureus MRSA (ATCC 43300); assay: CO-ADD antibacterial assay, growth inhibition (OD600); assay type: cell-based, Staphylococcus aureus; details: for MIC S. aureus (MRSA): predicted or measured MIC, lowest concentration with ≥75% growth inhibition, 0.25-32 μg/mL, 18 h; for Dmax S. aureus (MRSA), maximum % inhibition: up to 32 μg/mL
Protocol: (§1) Dry compounds ranging from 1–2 mg were weighed into properly labeled Eppendorf tubes and sealed with parafilm. The compounds were used as received by the CO-ADD. For the screenings, most compounds were dissolved to a stock concentration of 10 mg/mL in DMSO. K2[Ti(Citrate)3], Na3Citrate, and K2[TiO(Oxalate)2] were dissolved in warm water. […] Samples were diluted in water to a final testing concentration of 32 µg/mL while keeping the final co-solvent concentration to a maximum of 0.5%. Where applicable, compounds were serially diluted 1:2 fold eight times. Each sample concentration was prepared in 384-well plates, non-binding surface plate (NBS; Corning 3640) for each bacterial/fungal strain, tissue-culture treated (TC-treated; Corning 3712/3764), black for mammalian cell types and polypropylene 384-well (PP; Corning 3657) for hemolysis assays, all in duplicate (n = 2), and keeping the final DMSO concentration to a maximum of 0.5%. All sample preparation was conducted using liquid handling robots.
(§2) For the bacterial assays, four Gram-negative bacteria (E. coli (ATCC 25922, Manassas, VA, USA); K. pneumoniae (ATCC 700603), A. baumannii; (ATCC 19606), and P. aeruginosa (ATCC 27853) and the Gram-positive bacteria (S. aureus MRSA (ATCC 43300) were used. Each strain was cultured in cation-adjusted Mueller Hinton broth (CAMHB; Bacto Laboratories 212322, Mount Pritchard, Australia) at 37 °C overnight. A sample of each culture was then diluted 40-fold in fresh CAMHB and incubated at 37 °C for 1.5–3 h. The resultant mid-log phase cultures were diluted with CAMHB (CFU/mL measured by OD600), then added to each well of the compound-containing plates (384-well non-binding surface (NBS) plates; Corning CLS3640, Millipore Sigma, Burlington, MA, USA), giving a cell density of 5 × 10^5 CFU/mL and a total volume of 50 µL. Plates were covered and incubated at 37 °C for 18 h without shaking. Inhibition of bacterial growth was determined by measuring absorbance at 600 nm (OD600) with a Tecan M1000 Pro monochromator plate reader, using media-only as negative control and bacteria without inhibitors as a positive control. […] Colistin sulfate (Sigma C4461) and vancomycin HCl (Sigma 861987) were used as internal controls on each plate for Gram-negative and Gram-positive bacteria, respectively.

[2] = system: A. baumannii (ATCC 19606); assay: as above; assay type: cell-based, Acinetobacter baumannii; details: up to 32 μg/mL; for MIC A. baumannii: predicted or measured MIC, ≥75% growth inhibition
Protocol: as §1, §2

E. coli (ATCC 25922) = assay: as above; assay type: cell-based, Escherichia coli; details: up to 32 μg/mL; for MIC E. coli: predicted or measured MIC, ≥75% growth inhibition
Protocol: as §1, §2

[3] = system: K. pneumoniae (ATCC 700603); assay: as above; assay type: cell-based, Klebsiella pneumoniae; details: up to 32 μg/mL; for MIC K. pneumoniae: predicted or measured MIC, ≥75% growth inhibition
Protocol: as §1, §2

[4] = system: P. aeruginosa (ATCC 27853); assay: as above; assay type: cell-based, Pseudomonas aeruginosa; details: up to 32 μg/mL; for MIC P. aeruginosa: predicted or measured MIC, ≥75% growth inhibition
Protocol: as §1, §2

C. albicans (ATCC 90028) = assay: CO-ADD antifungal assay, growth inhibition (OD630); assay type: cell-based, Candida albicans; details: up to 32 μg/mL; for MIC C. albicans: predicted or measured MIC, ≥75% growth inhibition, 36 h
Protocol: (§3) The compounds were used as received by the CO-ADD. For the screenings, most compounds were dissolved to a stock concentration of 10 mg/mL in DMSO. K2[Ti(Citrate)3], Na3Citrate, and K2[TiO(Oxalate)2] were dissolved in warm water. [Cu(Deferasirox)(H2O)]2 was dissolved in pyridine after its solubility was determined to be excellent in pyridine due to coordination of the solvent to the metal producing [Cu(Deferasirox)(pyridine)]2 in situ. […] Each sample concentration was prepared in 384-well plates, non-binding surface plate (NBS; Corning 3640) for each bacterial/fungal strain, tissue-culture treated (TC-treated; Corning 3712/3764), black for mammalian cell types and polypropylene 384-well (PP; […] All sample preparation was conducted using liquid handling robots. For the fungal assays, the fungi (C. albicans (ATCC 90028) and C. neoformans) (ATCC 208821) were used. Both fungi (yeast) strains were cultured for 3 days on Yeast Extract-Peptone Dextrose (YPD; Becton Dickinson 242720, Thermo Fisher Scientific, Waltham, MA, USA) agar at 30 °C. A yeast suspension of 1 × 10^6 to 5 × 10^6 CFU/mL (as determined by OD530) was prepared from five colonies from the agar plates, subsequently diluted with Yeast Nitrogen Base media (YNB; Becton Dickinson 233520, Thermo Fisher Scientific, Waltham, MA, USA), and added to each well of the compound-containing plates (384-well plates, NBS; Corning CLS3640) giving a final cell density of 2.5 × 10^3 CFU/mL and a total volume of 50 μL. Plates were covered and incubated at 35 °C for 36 h without shaking. […] Sigma R7017) and incubation at 35 °C for 2 h, using media-only as a negative control and fungi without inhibitors as a positive control. […] Fluconazole (Sigma F8929) was used as an internal control on each plate for both strains.

[5] = system: C. neoformans (ATCC 208821); assay: CO-ADD antifungal assay, growth inhibition (resazurin, OD600-570); assay type: cell-based, Cryptococcus neoformans; details: up to 32 μg/mL; for MIC C. neoformans: predicted or measured MIC, ≥75% growth inhibition, 36 h
Protocol: as §3

[6] = system: HEK293 ATCC CRL-1573 human embryonic kidney cells; assay: CO-ADD cytotoxicity assay (resazurin); assay type: cell-based; details: all concentrations examined (0.25-32 μg/mL), 20 h; CC50 could not be measured
Protocol: The compounds were used as received by the CO-ADD. For the screenings, most compounds were dissolved to a stock concentration of 10 mg/mL in DMSO. K2[Ti(Citrate)3], Na3Citrate, and K2[TiO(Oxalate)2] were dissolved in warm water. [Cu(Deferasirox)(H2O)]2 was dissolved in pyridine after its solubility was determined to be excellent in pyridine due to coordination of the solvent to the metal producing [Cu(Deferasirox)(pyridine)]2 in situ. […] Each sample concentration was prepared in 384-well plates, non-binding surface plate (NBS; Corning 3640) for each bacterial/fungal strain, tissue-culture treated (TC-treated; Corning 3712/3764), black for mammalian cell types and polypropylene 384-well (PP; […] All sample preparation was conducted using liquid handling robots. HEK293 ATCC CRL-1573 human embryonic kidney cells were counted manually in a Neubauer hemocytometer and added to compound-containing plates (384-well plates, tissue culture-treated (TC); […] Life Technologies 11995-073) with 10% FBS (GE SH30084.03).

MRC-5 cells [7] = details: cited from earlier work
[8] = cited from earlier work
MRC-5 cells [9] = assay: MRC-5 cell viability, dose-response treatment, MTT assay; assay type: cell-based, human; details: pH 7.4
Protocol: A thawed stock of MRC-5 cells was washed with 1X PBS and resuspended in phenol red DMEM media (supplemented with 10% FBS and 1% of penicillin-streptomycin) and then seeded in a 100 mm × 20 mm (complete, O.D. x H) petri dish and grown in a 5% (v/v) CO2 humidified atmosphere at 37 °C. At least three passages were performed to ensure the integrity of the cells. After this point, cells were collected, thoroughly washed with 1X PBS, and then resuspended in phenol red-free DMEM (supplemented with 10% FBS, 1% Streptomycin/Penicillin, and 2.4 mM L-glutamine) at a 2.0 × 10^5 cells/mL concentration. Approximately 100 µL of the cell solution was seeded into wells of several 96-well plates to begin the MTT assay, which was performed in the 5% (v/v) CO2 humidified atmosphere at 37 °C. At least one lane of wells in each plate was supplied media without cells as a control. […] Most of the compounds were dissolved in 1X PBS buffer at pH 7.4. […] Titanocene dichloride was prepared as a fresh stock solution in DMSO and then diluted in 0.1 M NaCl (aq) instead of 1X PBS (to minimize hydrolysis induced precipitation) to the desired concentration while maintaining a constant 1% (v/v) DMSO background (0.5% DMSO after mixing with the well media). A control of cells treated with media containing 1% (v/v) DMSO was included in the study. The titanocene solutions were used within an hour of preparation in the final cell solution. […] At 3 h before a total of 72 h of incubation with the compounds, the cells were treated with 25 µL of 9 mg/mL MTT prepared in 1X PBS and sterile-filtered. Upon completion of the three hours, 50 µL of 10% (w/v) SDS (prepared in 0.1 M Tris buffer at pH 11) was added to solubilize the purple formazan product crystals and left overnight in the incubator. Control wells in the plates consisted of: (1) Untreated cells + MTT as the measure of 100% viable cell growth in the media and (2) Media with no cells + MTT as the measure of zero cells in the media. Two sets of compounds could be tested per plate. The plates were read at the wavelength of 570 nm (absorbance of the formazan product at pH 10.0) and 800 nm (background control) using a Tecan plate reader. The absorbance of all wells was compared to the absorbance of the untreated cells with the MTT set as the 100% viable cell standard and the absorbance of the zero cell control set as the 0% viable cell standard. […] Nonlinear regression in Origin 8.5 was utilized to fit the growth curves using the pharmacology dose–response equation to determine the half-maximal inhibitory concentration (IC50) and the corresponding standard deviation. All samples were tested six times.

[10] = Aqueous solution stability, ligand exchange lability and solubility; details: water / aqueous buffer
[11] = system: hemolytic and nonhemolytic S. aureus cultures; parameters: method as in doi:10.2298/abs141203061g; details: cited from earlier work
[12] = system: total intestinal bacterial count; parameters: method as in PMID 11762532; details: white mice, supplied in bread; cited from earlier work

SMILES	MIC S. aureus (MRSA) [1] [µg/mL]	Dmax S. aureus (MRSA), maximum % inhibition [1] [%]	MIC A. baumannii [2] [µg/mL]	Dmax A. baumannii, maximum % inhibition [2] [%]	MIC E. coli (E. coli (ATCC 25922)) [µg/mL]	Dmax E. coli, maximum % inhibition (E. coli (ATCC 25922)) [%]	MIC K. pneumoniae [3] [µg/mL]	Dmax K. pneumoniae, maximum % inhibition [3] [%]	MIC P. aeruginosa [4] [µg/mL]	Dmax P. aeruginosa, maximum % inhibition [4] [%]	MIC C. albicans (C. albicans (ATCC 90028)) [µg/mL]	Dmax C. albicans, maximum % inhibition (C. albicans (ATCC 90028)) [%]	MIC C. neoformans [5] [µg/mL]	Dmax C. neoformans, maximum % inhibition [5] [%]	also measured
O=C1CN2CCN3CC(=O)[O][Ti]([O]1)([O]c1ccccc1C2)[O]c1ccccc1C3 [Compound 11, Ti(HBED)]	>32	61.46	>32	68.73	>32	48.02	>32	56.3	>32	72.48	>32	10.43	>32	−18.86	antiproliferative effect against HEK293 (in words) [6]: inactive; IC50 ± SD (MRC-5 cells [7]): 18.5 ± 1.9 µg/mL; IC50 (MRC-5 cells [7]; read-out: IC50 ± SD): 42 ± 4.4 µM; solution stability (in words) ([8]; pH 4): highly stable in solution
O=C1[O][Ti-2]23([O]C(=O)c4ccccc4[O]2)([O]C(=O)c2ccccc2[O]3)[O]c2ccccc21.[Na+].[Na+] [Compound 12, Na2[Ti(Salicylate)3]]	>32	3.66	>32	9.4	>32	2.6	>32	12.46	>32	9.57	>32	49.3	>32	−5.2	IC50 ± SD (µg/mL), relative IC50 (MRC-5 cells [9]): 5.14 ± 0.92 µg/mL; IC50 (MRC-5 cells [9]; read-out: IC50 ± SD (µM), relative IC50): 8.6 ± 1.54 µM; solubility (in words) [10]: limited solubility in water
O=C([O-])CC1(CC(=O)[O-])[O][Ti-2]23([O]C1=O)([O]C(=O)C(CC(=O)[O-])(CC(=O)[O-])[O]2)[O]C(=O)C(CC(=O)[O-])(CC(=O)[O-])[O]3 [Ti(citrate)3^8−]	–	–	–	–	–	–	–	–	–	–	–	–	–	–	biofilm formation (in words) ([11]; all concentrations tested (0.5 to 50 mM)): significantly activated biofilm formation; concentration with significant inhibition of growth rate ([11]; only the early phase of the bacterial growth cycle): 50 mM; ligand exchange lability (in words) [8]: ligand exchange labile
O=C(O)C(=O)O.[O]=[Ti] [titanyl oxalate]	–	–	–	–	–	–	–	–	–	–	–	–	–	–	decrease in the total intestinal bacterial count [12]: 50%
